Data published in US5753617A, “Peptide inhibitors of cellular adhesion” (Centocor, Inc., priority 1995, dated 1998).
Where a SMILES comes first, the peptide text is derived from it. Bridges are numbered along the chain shown (N, C = ends). [ ]: non-standard residue; d: D form. Tic = O=C(O)[C@@H]1Cc2ccccc2CN1; dPen = CC(C)(S)[C@@H](N)C(=O)O

These compounds were tested against T1, P-selectin (Homo sapiens, UniProt P16109) (assay: Inhibition of human neutrophil adhesion to purified P-selectin immobilized on plastic wells). Conditions: inhibiting the binding of human neutrophils to P-selectin.
T1 construct: P-selectin is isolated from human platelet lysates; from tissue; host or cells: human platelets (outdated platelet packs from a blood bank)
T1 sequence (P16109 42-830): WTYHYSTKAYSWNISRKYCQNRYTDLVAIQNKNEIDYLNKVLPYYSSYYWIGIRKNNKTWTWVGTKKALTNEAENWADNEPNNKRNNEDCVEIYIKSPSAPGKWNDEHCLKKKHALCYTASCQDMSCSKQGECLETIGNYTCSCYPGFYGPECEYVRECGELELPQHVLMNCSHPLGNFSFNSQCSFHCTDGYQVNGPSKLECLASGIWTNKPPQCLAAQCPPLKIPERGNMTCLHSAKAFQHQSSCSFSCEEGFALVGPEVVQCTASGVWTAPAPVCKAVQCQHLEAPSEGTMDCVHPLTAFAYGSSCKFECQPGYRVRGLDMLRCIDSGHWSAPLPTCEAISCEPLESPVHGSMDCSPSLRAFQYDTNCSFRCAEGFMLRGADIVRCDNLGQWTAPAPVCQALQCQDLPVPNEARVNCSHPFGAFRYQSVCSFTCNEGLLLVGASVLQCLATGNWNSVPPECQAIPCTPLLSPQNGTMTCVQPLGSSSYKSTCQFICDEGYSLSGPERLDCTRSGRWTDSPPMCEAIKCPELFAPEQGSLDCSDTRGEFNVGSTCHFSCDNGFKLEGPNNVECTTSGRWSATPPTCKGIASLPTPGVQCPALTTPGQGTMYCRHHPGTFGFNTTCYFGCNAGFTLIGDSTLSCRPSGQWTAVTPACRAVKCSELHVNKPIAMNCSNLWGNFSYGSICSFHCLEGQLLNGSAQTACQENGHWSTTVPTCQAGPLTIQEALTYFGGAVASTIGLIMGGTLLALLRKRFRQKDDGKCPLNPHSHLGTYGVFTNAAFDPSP
Type: cell-based
Text: Peptides can be screened for their ability to inhibit adhesion to cells, for example, neutrophil adhesion to purified P-selectin immobilized on plastic wells, using the assay described by Geng, et al., Nature 343, 757-760 (1990). Human neutrophils are isolated from heparinized whole blood by density gradient centrifugation on Mono-Poly resolving media, Flow Laboratories. Neutrophil suspensions are greater than 98% pure and greater than 95% viable by trypan blue exclusion. For adhesion assays, neutrophils are suspended at a concentration of 2×10^6 cells/mL in Hanks' balanced salt solution containing 1.26 mM Ca^2+ and 0.81 mM Mg^2+ (HBSS, Gibco) with […] human serum albumin (HBSS/HSA). Adhesion assays are conducted in triplicate in 96-well microliter plates, Corning, incubated at 4° C. overnight with 50 microliters of various protein solutions. P-selectin is isolated from human platelet lysates by immunoaffinity chromatography on antibody S12-Sepharose™ and ion-exchange chromatography on a Mono-Q™ column (FLPC, Pharmacia Fine Chemicals), as follows. Outdated human platelet packs (100 units) obtained from a blood bank and stored at 4° C. are pooled, adjusted to 5 mM EDTA at pH 7.5, centrifuged at 4,000 rpm for 30 minutes in 1 liter bottles, then washed three times with 1 liter of 0.1M NaCl, 20 mM Tris pH 7.5 (TBS), 5 mM EDTA, 5 mM benzamidine. The pellets are then resuspended in a minimum amount of wash buffer and made 1 mM in DIFP, then frozen in 50 mL screwtop tubes at -80° C. The frozen platelets are thawed and resuspended in 50 mL TBS, 5 mM benzamidine, 5 mM EDTA pH 7.5, […]. The suspension is frozen and thawed two times in a dry ice-acetone bath using a 600 mL lyophilizing flask, then homogenized in a glass/teflon mortar and pestle and made 1 mM in DIFP. The NaCl concentration is adjusted to 0.5M with a stock solution of 4M NaCl. After stirring the suspension at 4° C., it is centrifuged in polycarbonate tubes at 33,000 rpm for 60 minutes at 4° C. The supernatant (0.5M NaCl wash) is removed and saved; this supernatant contains the soluble form of P-selectin. Care is taken not to remove the top part of the pellet with the supernatant. The pellets are then homogenized in extraction buffer (TBS, 5 mM benzamidine, 5 mM EDTA, pH 7.5, 100 μM leupeptin, 2% Triton X-100). After centrifugation at 19,500 rpm for 25 minutes at 4° C., the supernatant is removed. The extraction procedure is repeated with the pellet and the supernatant is combined with the first supernatant. The combined extracts, which contain the membrane form of P-selectin, are adjusted to 0.5M NaCl. The soluble fraction (0.5M NaCl wash) and the membrane extract (also adjusted to 0.5M NaCl) are absorbed with separate pools of the monoclonal antibody S12 (directed to P-selectin) previously couple […]) at 5 mg/mL for 2 hours at 4° C. After letting the resins settle, the supernatants are removed. The S12 Affigel containing bound GMP-140 is then loaded into a column and washed overnight at 4° C. with 400 mL of 0.5M NaCl, 20 mM Tris pH 7.5, 0.01% Lubrol PX. Bound P-selectin is eluted from the S12 Affigel with 100 mL of 80% ethylene glycol, 1 mM MES pH 6.0, 0.01% Lubrol PX. Peak fractions with absorbance at 280 nm are pooled. Eluates are dialyzed against TBS with 0.05% Lubrol, then applied to a Mono Q column (FPLC from Pharmacia). The concentrated protein is step eluted with 2M NaCl, 20 mM Tris pH 7.5 (plus 0.05% Lubrol PX for the membrane fraction). Peak fractions are dialyzed into TBS pH 7.5 (plus 0.05% Lubrol PX for the membrane fraction). P-selectin is plated at 5 micrograms/mL and the control proteins: human serum albumin (Alb), platelet glycoprotein IIb/IIIa (IIb), von Willebrand factor (vWF), fibrinogen (FIB), thrombomodulin (TM), gelatin (GEL) or human serum (HS), are added at 50 micrograms/mL. […]

IC50 | Structure (SMILES)
217 µM | CC(C)[C@@H](NC(=O)[C@@H](Cc1c[nH]c2ccccc12)NC(=O)[C@H](NC(=O)[C@@H](Cc1c[nH]c2ccccc12)NC(=O)[C@H]1CSSC[C@@H](NC(=O)[C@@H](CCCCN)NC(=O)[C@H](N)CCCNC(=N)N)C(=O)N[C@H](CCCCN)C(=O)N[C@@H](Cc2ccccc2)C(=O)N1)[C@H](C)O)C(N)=O [(54)] (H-[dR][dK][dC][dK]F[dC][dW][dT][dW][dV]-NH2; disulfide 3-6)
52.9 µM | CC(C)[C@@H](NC(=O)[C@@H](Cc1c[nH]c2ccccc12)NC(=O)[C@H](NC(=O)[C@@H](Cc1c[nH]c2ccccc12)NC(=O)[C@H]1CSSC[C@@H](NC(=O)[C@@H](C)NC(=O)[C@H](N)CCCNC(=N)N)C(=O)NCC(=O)N[C@@H](Cc2ccccc2)C(=O)N1)[C@H](C)O)C(N)=O [(110)] (H-[dR][dA][dC]GF[dC][dW][dT][dW][dV]-NH2; disulfide 3-6)
10.6 µM | CC(C)[C@@H](NC(=O)[C@@H](Cc1c[nH]c2ccccc12)NC(=O)[C@H](NC(=O)[C@@H](Cc1c[nH]c2ccccc12)NC(=O)[C@H]1CSC[C@@H](NC(=O)[C@@H](CCCCN)NC(=O)[C@H](N)CCCNC(=N)N)C(=O)NCC(=O)N[C@@H](Cc2ccccc2)C(=O)N1)[C@H](C)O)C(N)=O [(81)]
83.4 µM | CC(C)[C@@H](NC(=O)[C@@H](Cc1c[nH]c2ccccc12)NC(=O)[C@H](NC(=O)[C@@H](Cc1c[nH]c2ccccc12)NC(=O)[C@H]1CSSC[C@@H](NC(=O)[C@@H](CCCCN)NC(=O)[C@H](N)CCCNC(=N)N)C(=O)NCC(=O)N2Cc3ccccc3C[C@H]2C(=O)N1)[C@H](C)O)C(N)=O [(86)] (H-[dR][dK][dC]G[Tic][dC][dW][dT][dW][dV]-NH2; disulfide 3-6)
88.3 µM | CC(C)[C@@H](NC(=O)[C@@H](CCC(N)=O)NC(=O)[C@H](NC(=O)[C@@H](Cc1ccc(O)cc1)NC(=O)[C@H]1CSSC[C@@H](NC(=O)[C@@H](CCCCN)NC(=O)[C@H](N)CCCNC(=N)N)C(=O)NCC(=O)N[C@@H](Cc2ccccc2)C(=O)N1)[C@H](C)O)C(N)=O [(100)] (H-[dR][dK][dC]GF[dC][dY][dT][dQ][dV]-NH2; disulfide 3-6)
1 µM | CC(C)[C@@H](NC(=O)[C@@H](Cc1c[nH]c2ccccc12)NC(=O)[C@H](NC(=O)[C@@H](Cc1c[nH]c2ccccc12)NC(=O)[C@H]1CSSC[C@@H](NC(=O)[C@@H](CCCCN)NC(=O)[C@H](N)CCCNC(=N)N)C(=O)NCC(=O)N2CCC[C@@H]2C(=O)N1)[C@H](C)O)C(N)=O [(16)] (H-[dR][dK][dC]G[dP][dC][dW][dT][dW][dV]-NH2; disulfide 3-6)
36 µM | CC[C@H](C)[C@@H]1NC(=O)[C@@H](NC(=O)[C@@H](N)CCCNC(=N)N)CSSC[C@@H](C(=O)N[C@@H](Cc2c[nH]c3ccccc23)C(=O)N[C@H](C(=O)N[C@@H](Cc2c[nH]c3ccccc23)C(=O)N[C@H](C(N)=O)C(C)C)[C@@H](C)O)NC(=O)CNC(=O)CNC1=O [(5)] (H-RCIGGCWTWV-NH2; disulfide 2-6)
19.3 µM | CC(C)[C@@H](NC(=O)[C@@H](Cc1ccc(O)cc1)NC(=O)[C@H](NC(=O)[C@@H](Cc1c[nH]c2ccccc12)NC(=O)[C@H]1CSSC[C@@H](NC(=O)[C@@H](CCCCN)NC(=O)[C@H](N)CCCNC(=N)N)C(=O)NCC(=O)N[C@@H](Cc2ccccc2)C(=O)N1)[C@H](C)O)C(N)=O [(63)] (H-[dR][dK][dC]GF[dC][dW][dT][dY][dV]-NH2; disulfide 3-6)
33.9 µM | CC[C@@H](C)[C@@H](NC(=O)CNC(=O)[C@H]1CSSC[C@@H](N)C(=O)N[C@H](CCCCN)C(=O)N[C@H]([C@H](C)CC)C(=O)N1)C(=O)N[C@H](Cc1c[nH]c2ccccc12)C(=O)N[C@@H](C(=O)N[C@H](Cc1c[nH]c2ccccc12)C(=O)N[C@@H](C(N)=O)C(C)C)[C@H](C)O [(109)] (H-[dC][dK][dI][dC]G[dI][dW][dT][dW][dV]-NH2; disulfide 1-4)
41 µM | CC(C)[C@H](NC(=O)[C@H](Cc1c[nH]c2ccccc12)NC(=O)[C@@H](NC(=O)[C@H](Cc1c[nH]c2ccccc12)NC(=O)[C@@H]1NC(=O)CNC(=O)CNC(=O)[C@H](NC(=O)[C@H](CCCCN)NC(=O)[C@@H](N)CCCNC(=N)N)C(C)(C)SSC1(C)C)[C@@H](C)O)C(N)=O [(24)] (H-RK[dPen]GG[dPen]WTWV-NH2; disulfide 3-6)
30 µM | CC(C)[C@H](NC(=O)[C@H](Cc1c[nH]c2ccccc12)NC(=O)[C@@H](NC(=O)[C@H](Cc1c[nH]c2ccccc12)NC(=O)[C@@H]1NC(=O)CNC(=O)CNC(=O)[C@@H](NC(=O)[C@H](CCCCN)NC(=O)[C@@H](N)CCCNC(=N)N)CSSC1(C)C)[C@@H](C)O)C(N)=O [(10)] (H-RKCGG[dPen]WTWV-NH2; disulfide 3-6)
26.8 µM | CC[C@H](C)[C@@H]1NC(=O)[C@H](NC(=O)[C@@H](CCCCN)NC(=O)[C@H](N)CCCNC(=N)N)CSSC[C@H](C(=O)N[C@H](Cc2c[nH]c3ccccc23)C(=O)N[C@@H](C(=O)N[C@H](Cc2c[nH]c3ccccc23)C(=O)N[C@@H](C(N)=O)C(C)C)[C@H](C)O)NC(=O)[C@@H]2CCCN2C1=O [(95)] (H-[dR][dK][dC]IP[dC][dW][dT][dW][dV]-NH2; disulfide 3-6)
115 µM | CC[C@H](C)[C@@H]1NC(=O)[C@H](CCCCN)NC(=O)[C@@H](N)CCC(=O)NCCCC[C@@H](C(=O)N[C@@H](Cc2c[nH]c3ccccc23)C(=O)N[C@H](C(=O)N[C@@H](Cc2c[nH]c3ccccc23)C(=O)N[C@H](C(N)=O)C(C)C)[C@@H](C)O)NC(=O)CNC(=O)CNC1=O [Preferred peptide (1), Cyclo(glutamyl-lysyl-isoleucyl-glycyl-glycyl-lysyl)-tryptophyl-threonyl-tryptophyl-valine-amide] (H-EKIGGKWTWV-NH2; lactam 1-6)
18.4 µM | CC(C)[C@@H](NC(=O)[C@@H](Cc1c[nH]c2ccccc12)NC(=O)[C@H](NC(=O)[C@@H](Cc1c[nH]c2ccccc12)NC(=O)[C@H]1CSSC[C@@H](NC(=O)[C@@H](CCC(N)=O)NC(=O)[C@H](N)CCCNC(=N)N)C(=O)NCC(=O)N[C@@H](Cc2ccccc2)C(=O)N1)[C@H](C)O)C(N)=O [(111)] (H-[dR][dQ][dC]GF[dC][dW][dT][dW][dV]-NH2; disulfide 3-6)
